Read-outs that look alike come from different tables or passages of the source.
Legend:
[1] = Single-dose IV and PO pharmacokinetics in mice; assay type: in vivo, male C57BL/6 mice; details: for AUC: analyte = dosed compound; for Cmax: read-out: Cmax, Geo Mean; for Tmax: read-out: Tmax, Geo Mean
Procedure: The in-life study and quantitative analysis of plasma samples using LC/MS were performed at Charles River Laboratories, Inc. (Wilmington, MA, USA).

[2] = Thermodynamic solubility in fasted-state simulated intestinal fluid (FaSSIF); assay type: physicochemical; details: pH 6.5, LLOQ < 1.56 µM
Procedure: The thermodynamic solubility analysis in biological media and the quantitative analysis of samples were performed according to the standard protocol at WuXi AppTec (Shanghai, China).

[3] = Pharmacokinetic modeling of valine pro-drug conversion to parent; assay type: in vivo, mice
Source text: A total of 36 mice with available PK data were included for non-linear mixed-effects analysis using NONMEM (version 7.5.0, ICON Development Solutions, Ellicott City, MD, USA), implementing the first-order conditional estimation with interaction (FOCE-I). R (version 4.2.0, R Foundation for Statistical Computing, Vienna, AUT, http://www.r-project.org) was used for visual diagnostics. […] The analyte (valine conjugate and parent compound) plasma concentration–time data were confirmed to have a biphasic distribution and elimination and were therefore fit separately to a linear two-compartment model with a depot for oral administration. Each model was parametrized in terms of clearance (CL), the volume of distribution of the central compartment (V1), intercompartmental clearance (Q), and the volume of the peripheral compartment (V3). Interindividual variability (IIV) for each parameter was assumed to be log-normally distributed, and residual variability (RUV) was described with a proportional error model. The PK parameter estimates from these independent models (parent compound or valine conjugate) were used as initial estimates for a combined model describing the conversion and disposition of the valine conjugate to the parent drug and associated metabolites. The model estimated the fraction of pro-drug converted to parent drug (Fm), which was used to calculate the first-order rate constant of metabolite formation (Kmet) = Fm × Kel. This rate constant was used to calculate the half-life of the conversion process and the amount of metabolite formed at complete conversion. The rate of metabolite formation was then calculated as the ratio of the amount of metabolite formed to the time required for complete conversion (~5 half-lives), as detailed in Figures S8–S11.

[4] = PO, 40 mg/kg (valine conjugates 40 mg/kg EQV)

- HL_Lambda_z, Geo Mean ([1]; IV, 2 mg/kg (valine conjugates 2 mg/kg EQV)): 1.94 h
- IV: Clobs, Geo Mean ([1]; IV, 2 mg/kg (valine conjugates 2 mg/kg EQV), non-compartmental analysis): 0.004 L/h
- HL_Lambda_z, Geo Mean [1, 4]: 5.77 h
- PO: Cl_Fobs, Geo Mean [1, 4]: 0.59 L/h
- AUC ([1]; male, C57BL/6, mouse, plasma, iv, 2 mg/kg, IV, 2 mg/kg (valine conjugates 2 mg/kg EQV), non-compartmental analysis, read-out: AUCall, Geo Mean): 36.1 µM·h
- Cmax ([1]; male, C57BL/6, mouse, plasma, iv, 2 mg/kg, IV, 2 mg/kg (valine conjugates 2 mg/kg EQV)): 20.2 µM
- AUC ([1]; male, C57BL/6, mouse, plasma, po, 40 mg/kg, PO, 40 mg/kg (valine conjugates 40 mg/kg EQV), non-compartmental analysis, read-out: AUCall, Geo Mean): 4.17 µM·h
- Cmax ([1]; male, C57BL/6, mouse, plasma, po, 40 mg/kg, PO, 40 mg/kg (valine conjugates 40 mg/kg EQV)): 0.99 µM
- AUC ([1]; male, C57BL/6, mouse, plasma, po, 40 mg/kg, single PO dose, 40 mg/kg or molar equivalent, read-out: AUCall following an oral dose): 4.17 µM·h
- Tmax ([1]; male, C57BL/6, mouse, plasma, IV, 2 mg/kg (valine conjugates 2 mg/kg EQV)): 23.4 min
- Tmax ([1]; male, C57BL/6, mouse, plasma, PO, 40 mg/kg (valine conjugates 40 mg/kg EQV)): 60 min
- clearance ([1]; male, C57BL/6, mouse, plasma, single IV dose, 2 mg/kg or molar equivalent, read-out: Systemic clearance following an IV dose (converted)): 0.0667 mL/min
- solubility thermodynamic [2]: < 1.56 µM
- k el ([3]; C57BL/6, mouse, plasma, model estimate, read-out: Kel, elimination rate constant of valine conjugate (converted)): 0.00853 s⁻¹
- Kmet, rate constant of conversion to parent compound ([3]; Kmet = Fm × Kel): 11.9 h⁻¹
- Fraction of pro-drug converted to parent (Fm) ([3]; two-compartment model estimate): 39%
SMILES: CC(C)[C@H](N)C(=O)Oc1ccc(Cl)cc1C(=O)Nc1ccc(C(F)(F)F)cc1 [valine–compound #11]
